In patent US6087391A, “Method of rendering organic compounds soluble in fatty systems, novel chemical complexes of such compounds and various applications of the complexes” (priority 1994, dated 2000):

Experiment: Simulation of bioavailability: availability of test compound in standardised enteric juice
Settings: enteric juice pH 8.3, 37 degrees Celsius; mean over the entire experiment (60-240 minutes); mean of two experiments
Procedure: 5 g of test compound either pure or in ethanolic solution was mixed with 5-20 g of the below mentioned carrier. After vigorously mixing ethanol was removed by evaporation.
The following carrier was used: diacetylated monoglyceride with the following fatty acid composition based on the monoglyceride: about 50% lauric acid (12:0), 20% myristic acid (14:0), 15% caprylic/capric acid (8:0 and 10:0) and 10% palmitic acid (16:0).
The pH was adjusted to 8.3.
0.500 g complex and 50 ml of standardised enteric juice was mixed in a 100 ml vessel and placed on a shaking water bath at 37 degrees Celsius under moderate agitation. As controls pure test compound corresponding to 0.500 g complex was used instead of 0.500 g complex.
Samples of 1.000 ml were collected after 60, 120, 180 and 240 minutes. The samples were extracted with 1.5 ml of 1-butanol. The concentration of test compound in the enteric juice was determined by an appropriate method (spectrophotometrically or by HPLC).

For `COC1=C(OC)C(=O)C(C/C=C(\C)CC/C=C(\C)CC/C=C(\C)CC/C=C(\C)CC/C=C(\C)CC/C=C(\C)CC/C=C(\C)CC/C=C(\C)CC/C=C(\C)CCC=C(C)C)=C(C)C1=O` [Q10, coenzyme Q10], the “availability in the complex form compared to pure test compound” value was 2,2 times.
